According to patent US8101605B2, “SHIP1 modulators and methods related thereto” (Aquinox Pharmaceuticals Inc., priority 2009, dated 2012):

Columns and labels:
His-hSHIP1 enzyme = target: T1, His-hSHIP1 enzyme (Homo sapiens, UniProt Q92835); assay: His-hSHIP1 phosphatase activity assay (IP4 substrate, Biomol Green); assay type: biochemical; details: percentage increase relative to background; concentrations ≦300 μM
T1 sequence (Q92835 1-1189): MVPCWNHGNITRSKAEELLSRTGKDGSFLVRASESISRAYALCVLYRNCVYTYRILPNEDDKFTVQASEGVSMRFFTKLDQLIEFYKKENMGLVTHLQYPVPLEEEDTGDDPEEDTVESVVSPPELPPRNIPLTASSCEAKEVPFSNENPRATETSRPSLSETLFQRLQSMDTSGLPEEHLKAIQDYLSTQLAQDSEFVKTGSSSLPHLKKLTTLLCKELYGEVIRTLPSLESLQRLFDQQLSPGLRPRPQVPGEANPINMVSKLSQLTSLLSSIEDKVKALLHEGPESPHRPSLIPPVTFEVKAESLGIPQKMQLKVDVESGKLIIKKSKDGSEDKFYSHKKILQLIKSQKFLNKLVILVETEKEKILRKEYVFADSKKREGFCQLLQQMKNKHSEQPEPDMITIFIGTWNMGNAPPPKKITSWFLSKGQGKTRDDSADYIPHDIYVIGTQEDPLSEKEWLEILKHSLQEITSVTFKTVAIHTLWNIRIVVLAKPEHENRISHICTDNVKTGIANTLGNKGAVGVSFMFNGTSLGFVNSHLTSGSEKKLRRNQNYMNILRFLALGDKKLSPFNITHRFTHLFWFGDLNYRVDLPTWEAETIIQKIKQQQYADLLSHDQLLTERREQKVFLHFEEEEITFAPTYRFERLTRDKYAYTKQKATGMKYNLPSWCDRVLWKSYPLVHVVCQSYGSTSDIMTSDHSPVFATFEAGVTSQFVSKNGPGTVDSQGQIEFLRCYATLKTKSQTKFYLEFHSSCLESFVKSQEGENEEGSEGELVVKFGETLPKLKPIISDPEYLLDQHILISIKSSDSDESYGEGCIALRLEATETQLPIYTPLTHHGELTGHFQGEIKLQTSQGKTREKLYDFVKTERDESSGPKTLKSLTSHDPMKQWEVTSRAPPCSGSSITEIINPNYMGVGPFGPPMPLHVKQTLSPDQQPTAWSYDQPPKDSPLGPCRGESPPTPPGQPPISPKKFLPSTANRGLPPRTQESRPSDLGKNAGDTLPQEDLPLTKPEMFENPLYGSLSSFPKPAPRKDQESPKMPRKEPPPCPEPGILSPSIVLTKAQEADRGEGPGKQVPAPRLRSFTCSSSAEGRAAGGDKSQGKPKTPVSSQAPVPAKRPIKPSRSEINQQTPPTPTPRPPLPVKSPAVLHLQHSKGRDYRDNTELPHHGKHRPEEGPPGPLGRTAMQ
Procedure: Test compounds were dissolved in 95% ethanol to form stock solutions. Before screening, the stock solutions were diluted with Phosphatase Assay Buffer (20 mM Tris-HCL, 10 mM MgCl2 pH 7.5, 0.02% Tween 20) to form working assay solutions that contained 10% ethanol. The assay was carried out on 96-well microtiter plates using a modified procedure of that reported by Ong et al., Blood 110, 1942-1949, 2007 and Yang et al., Org Lett 7, 1073-1076, 2005, both of which references are incorporated herein by reference in their entirety.
Each reaction contained 5 μL of His-hSHIP1 enzyme (15-20 ng), 10 μL of the substrate, 1,3,4,5-inositol tetrakisphosphate (IP4; 50 μM final), 5 μL of Phosphatase Assay Buffer, and 5 μL of test compound at various concentrations in 10% ethanol (0-300 μM final). Control blanks were also prepared by replacing His-hSHIP1 enzyme, IP4, or test compounds with Phosphatase Assay Buffer. After adding the reaction components in a 96-well microtiter plate on ice, the reaction was mixed by briefly shaking the plate vigorously. The reaction was then incubated at 37° C. for 15 min with gentle shaking followed by addition of 100 μL of Biomol Green Reagent (BIOMOL, PA, USA) to terminate the reaction. The free phosphate released from IP4 by His-hSHIP1 bound to the Biomol Green Reagent, turning the solution green in colour. After incubating the mixture for 20 min at room temperature for colour development, the absorbance was read with a SpectraMax Plus 96-well plate reader (Molecular Devices, Sunnyvale, Calif., USA) at a wavelength of 650 nm.
Percent (%) activation in Table 2 is expressed as a percentage increase relative to background. Scoring is expressed as follows: + (<50%); ++ (≧50% but <65%); +++ (≧65%).

OPM2 cells = assay: Inhibition of OPM2 proliferation (BrdU ELISA); assay type: cell-based; details: Homo sapiens, OPM-2, 72 hours, read-out: Scoring: % inhibition of OPM2 proliferation
Procedure: Test compounds were dissolved in 100% DMSO to form stock solutions. Prior to screening, the stock solutions were diluted with complete media (RPMI 1640 containing 10% fetal calf serum, 2 mM L-glutamine and 50 U/mL each of penicillin and streptomycin) to form working assay solutions that contain 0.2% DMSO. The assay was initiated by adding 30,000 OPM2 cells (in 50 μL) to 50 μL of representative compounds at concentrations ranging from 0.03 to 30 μM. The cells were incubated for 72 hours in a humidified CO2 incubator with the addition of 10 μM BrdU for the final 6 hours according to the directions from the Roche BrdU Cell Proliferation ELISA kit used to detect proliferation (Roche, Cat. No. 11 647 229 001). OPM2 cells incubated in 0.1% DMSO in complete media were used as a negative control and the PI3Kα Inhibitor 2 (3-[4-(4-morpholinyl)thieno[3,2-d]pyrimidin-2-yl-phenol, Cayman Chemical, Cat. No. 10010177) was used as a positive control for inhibition of proliferation. At the end of the incubation, the plate containing the labeled cells was centrifuged, the supernatant removed and the cell pellets dried at 60° C. for 1 hour and stored at 4° C. until further analysis. Analysis of BrdU incorporation was done according to the manufacturer's instructions.

[1] = tested on: Akt phosphorylation in Molt-4 (PTEN−/SHIP1+) cells; assay: Akt phosphorylation in IGF-1 stimulated Molt-4 lymphocytes (western blot); assay type: cell-based; set-up: key: +: inhibits Akt phosphorylation at 10 μM; −: no effect on Akt phosphorylation at 10 μM; details: 10 μM; IGF-1 stimulation
Procedure: (§1) Jurkat (PTEN−/SHIP1−) or Molt-4 (PTEN−/SHIP1+) cells were starved in serum free RPMI for overnight. In a 15 mL conical tube, 2-3 million serum starved cells (1 million cells per mL) were treated with various concentrations of test compound (0.1, 1, or 10 μM final in 0.1% DMSO) for 30 min at 37° C. followed by stimulation with 100 ng/mL of IGF-1 for 1 hour at 37° C. After stimulation, cells were washed once with ice-cold DPBS and lysed with Lysis Buffer (20 mM Tris-HCl, pH 7.5, 140 mM NaCl, 1% NP-40, Complete Mini Protease Inhibitor Cocktail, 10 mM NaF, 1 mM Na3VO4, 1 mM β-glycerolphosphate) on ice for 30 min with vortexing every 10 min. Samples were then centrifuged at 13,000 rpm for 20 min, and supernatants were collected as total cell lysate samples. Protein concentration was determined using bicinchonic acid assay, and about 15 μg of total protein from each sample was loaded and separated on a 4-12% Tris-Glycine gel. After SDS-PAGE, proteins were transferred from the gel to a nitrocellulose membrane. The membrane was blocked in 5% BSA in PBS containing 0.1% Tween-20 (PBS-T) for 1 hour at room temperature before probing with primary antibodies for overnight at 4° C. The following antibodies were used: mouse anti-SHIP1 (1:500 dilution; Santa Cruz, Calif., USA), rabbit anti-phospho-Akt(Ser473) (1:1000 dilution; Cell Signaling Technologies, MA, USA), rabbit anti-Akt (1:1000; Cell Signaling Technologies, MA, USA), and rabbit anti-actin (1:2000; Cell Signaling Technologies, MA, USA). The membrane was then incubated with goat anti-rabbit or anti-mouse secondary antibodies (1:3000) for 1 hour at room temperature. Target proteins on the membrane were detected with ECL solution and exposed on a film.
(§2) Scoring in Table 3 is expressed as follows: + (inhibits Akt phosphorylation at 10 μM); − (no effect on Akt phosphorylation at 10 μM).

[2] = tested on: Akt phosphorylation in Jurkat (PTEN−/SHIP1−) cells; assay: Akt phosphorylation in IGF-1 stimulated Jurkat lymphocytes (western blot); assay type: cell-based; set-up: key: +: inhibits Akt phosphorylation at 10 μM; −: no effect on Akt phosphorylation at 10 μM; details: 10 μM; IGF-1 stimulation
Procedure: as §1, §2

Scoring: percent (%) activation of His-hSHIP1 enzyme (His-hSHIP1 enzyme) | Compound | inhibition at 30 µM (OPM2 cells) | Akt phosphorylation, Molt-4 (SHIP1+) [1] | Akt phosphorylation, Jurkat (SHIP1−) [2]
++ (≧50% but <65%) | CC1(C)CCC[C@]2(C)[C@H]3CS(=O)(=O)c4cc(C(=O)N5CCOCC5)cc(O)c4[C@]3(C)CC[C@@H]12 [compound 87, (1R,10R,11S,16S)-3-hydroxy-1,11,15,15-tetramethyl-5-[(morpholin-4-yl)-carbonyl]-8λ^6-thiatetracyclo[8.8.0.0^2,7.0^11,16]-octadeca-2,4,6-triene-8,8-dione] | 25 to 75% |  | 
 | COc1cc(OCC(=O)N2CCOCC2)cc2c1[C@]1(C)CC[C@H]3C(C)(C)CCC[C@]3(C)[C@H]1CS2(=O)=O [compound 110, (1R,10R,11S,16S)-3-methoxy-1,11,15,15-tetramethyl-5-[2-(morpholin-4-yl)-2-oxoethoxy]-8^6-thiatetracyclo[8.8.0.0^2,7.0^11,16]octadeca-2,4,6-triene-8,8-dione] | < 25% |  | 
+ (<50%) | COc1cc(O)cc2c1[C@]1(C)CC[C@H]3C(C)(C)CCC[C@]3(C)[C@H]1CS2(=O)=O [compound 57, (1R,10R,11S,16S)-5-hydroxy-3-methoxy-1,11,15,15-tetramethyl-8λ^6-thiatetracyclo[8.8.0.0^2,7.0^11,16]octadeca-2,4,6-triene-8,8-dione] | ≥ 75% |  | 
+ (<50%) | CC1(C)CCC[C@]2(C)[C@H]3COc4cc(O)cc(O)c4[C@]3(C)CC[C@@H]12 [Compound No. 50, (1R,10R,11S,16S)-1,11,15,15-tetramethyl-8-oxatetracyclo[8.8.0.0^2,7.0^11,16]octadeca-2,4,6-triene-3,5-diol] |  | + | −
+ (<50%) | CC1(C)CCC[C@]2(C)[C@H]3CSc4cc(O)cc(C#N)c4[C@]3(C)CC[C@@H]12 [compound 78, (1R,10R,11S,16S)-5-hydroxy-1,11,15,15-tetramethyl-8-thiatetracyclo[8.8.0.0^2,7.0^11,16]octadeca-2,4,6-triene-3-carbonitrile] | ≥ 75% |  | 
 | COc1cc(OC)c2c(c1N)S(=O)(=O)C[C@@H]1[C@@]3(C)CCCC(C)(C)[C@@H]3CC[C@@]21C [compound 112, (1R,10R,11S,16S)-6-amino-3,5-dimethoxy-1,11,15,15-tetramethyl-8^6-thiatetracyclo[8.8.0.0^2,7.0^11,16]octadeca-2,4,6-triene-8,8-dione] | ≥ 75% |  | 
+ (<50%) | CN1CCN(C(=O)c2cc(O)c3c(c2)S(=O)(=O)C[C@@H]2[C@@]4(C)CCCC(C)(C)[C@@H]4CC[C@@]32C)CC1 [compound 89, (1R,10R,11S,16S)-3-hydroxy-1,11,15,15-tetramethyl-5-[(4-methylpiperazin-1-yl)-carbonyl]-8λ^6-thiatetracyclo[8.8.0.0^2,7.0^11,16]octadeca-2,4,6-triene-8,8-dione] | ≥ 75% |  | 
+ (<50%) | COC(=O)CNC(=O)c1cc(O)c2c(c1)S(=O)(=O)C[C@@H]1[C@@]3(C)CCCC(C)(C)[C@@H]3CC[C@@]21C [compound 92, methyl 2-{[(1R,10R,11S,16S)-3-hydroxy-1,11,15,15-tetramethyl-8,8-dioxo-8λ^6-thiatetracyclo[8.8.0.0^2,7.0^11,16]octadeca-2,4,6-trien-5-yl]formamido}acetate] | ≥ 75% |  | 
+ (<50%) | CNC(=O)c1cc(OC)c2c(c1)S(=O)(=O)C[C@@H]1[C@@]3(C)CCCC(C)(C)[C@@H]3CC[C@@]21C [compound 81, (1R,10R,11S,16S)-3-methoxy-N,1,11,15,15-pentamethyl-8,8-dioxo-8λ^6-thiatetracyclo[8.8.0.0^2,7.0^11,16]octadeca-2,4,6-triene-5-carboxamide] | 25 to 75% |  | 
++ (≧50% but <65%) | CNC(=O)c1cc(O)c2c(c1)S(=O)(=O)C[C@@H]1[C@@]3(C)CCCC(C)(C)[C@@H]3CC[C@@]21C [Compound No. 62] | 25 to 75% |  | 
+ (<50%) | CC1(C)CCC[C@]2(C)[C@H]3CS(=O)(=O)c4cc(C(=O)N5CCNCC5)cc(O)c4[C@]3(C)CC[C@@H]12 [compound 102, (1R,10R,11S,16S)-3-hydroxy-1,11,15,15-tetramethyl-5-[(piperazin-1-yl)carbonyl]-8λ^6-thiatetracyclo[8.8.0.0^2,7.0^11,16]-octadeca-2,4,6-triene-8,8-dione] | ≥ 75% |  | 
